Source: patent US20250026766A1, “Thiazolopyridyl Amide Derivatives as DNA Polymerase Theta Inhibitors” (BeiGene, Ltd., priority 2022, published 2025)

What follows are compounds tested against Pol Theta (1-894) (Homo sapiens (Human), UniProt O75417) (assay: Biochemical Pol Theta (1-894) ATPase IC50 assay (ADP-Glo, ssDNA substrate)). Settings: ADP-Glo assay with ssDNA substrate, room temperature.
Procedure, shortened: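 His-tagged human Pol Theta 1-894 from Sf9 baculovirus cells, 2× enzyme solution at 12.5 nM, assayed with ssDNA substrate at room temperature in 40 mM Tris pH 7.5, 20 mM MgCl2, 1 mM DTT, 0.01% BSA, 0.05% Tween-20.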

Sequence of Pol Theta (1-894) (O75417 1-894): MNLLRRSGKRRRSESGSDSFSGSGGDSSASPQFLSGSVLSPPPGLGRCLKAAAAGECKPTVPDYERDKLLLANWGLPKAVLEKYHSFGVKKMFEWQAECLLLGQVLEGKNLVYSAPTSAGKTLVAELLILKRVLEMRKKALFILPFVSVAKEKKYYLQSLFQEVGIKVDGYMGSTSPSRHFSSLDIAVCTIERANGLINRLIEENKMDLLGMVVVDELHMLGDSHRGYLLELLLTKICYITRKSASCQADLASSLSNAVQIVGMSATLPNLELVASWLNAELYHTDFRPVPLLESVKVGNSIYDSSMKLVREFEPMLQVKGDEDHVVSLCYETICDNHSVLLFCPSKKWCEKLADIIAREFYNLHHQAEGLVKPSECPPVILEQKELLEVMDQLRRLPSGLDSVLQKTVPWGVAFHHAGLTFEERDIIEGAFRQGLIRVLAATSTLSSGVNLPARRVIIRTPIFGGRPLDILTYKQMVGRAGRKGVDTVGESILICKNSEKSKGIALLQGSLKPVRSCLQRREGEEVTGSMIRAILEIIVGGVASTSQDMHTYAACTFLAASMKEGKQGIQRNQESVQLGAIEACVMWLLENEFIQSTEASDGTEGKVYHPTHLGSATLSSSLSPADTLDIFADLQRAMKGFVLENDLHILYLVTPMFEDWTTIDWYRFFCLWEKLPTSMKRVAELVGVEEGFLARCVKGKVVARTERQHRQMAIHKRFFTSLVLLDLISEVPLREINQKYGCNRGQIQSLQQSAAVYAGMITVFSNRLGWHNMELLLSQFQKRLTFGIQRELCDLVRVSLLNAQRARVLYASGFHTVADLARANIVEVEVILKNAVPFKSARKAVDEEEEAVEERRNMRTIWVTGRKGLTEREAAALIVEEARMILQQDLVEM

Point of comparison: `COc1ccccc1-c1cnncc1C(=O)Nc1nc2ccc(-c3ccc(C(=O)N4CCOCC4)cc3)nc2s1` [Example 103, 5-(2-methoxyphenyl)-N-(5-(4-(morpholine-4-carbonyl)phenyl)thiazolo[5,4-b]pyridin-2-yl)pyridazine-4-carboxamide], IC50 83 nM. Against it:
- COc1ccccc1-c1cnncc1C(=O)Nc1nc2ccc(-c3ccc(C(=O)N4CCCC4)cc3)nc2s1 [Example 88, 5-(2-methoxyphenyl)-N-(5-(4-(pyrrolidine-1-carbonyl)phenyl)thiazolo[5,4-b]pyridin-2-yl)pyridazine-4-carboxamide] — 1.7-fold lower, 50 nM
- COc1ccc(C#N)cc1-c1cc(C)ncc1C(=O)Nc1nc2ccc(-c3ccc(OC4CNC4)cc3)nc2s1 [Example 170, N-(5-(4-(azetidin-3-yloxy)phenyl)thiazolo[5,4-b]pyridin-2-yl)-4-(5-cyano-2-methoxyphenyl)-6-methylnicotinamide] — 3.2-fold lower, 26 nM
- COc1ccccc1-c1cnncc1C(=O)Nc1nc2ccc(-c3ccc(Cl)cc3C(F)(F)F)nc2s1 [Example 99, N-(5-(4-chloro-2-(trifluoromethyl)phenyl)thiazolo[5,4-b]pyridin-2-yl)-5-(2-methoxyphenyl)pyridazine-4-carboxamide] — within 1.5-fold, 66 nM
- COc1ccc(C#N)cc1-c1cc(C)ncc1C(=O)Nc1nc2ccc(-c3ccc(N(CCO)S(C)(=O)=O)cc3)nc2s1 [Example 136, 4-(5-cyano-2-methoxyphenyl)-N-(5-(4-(N-(2-hydroxyethyl)methylsulfonamido)phenyl)thiazolo[5,4-b]pyridin-2-yl)-6-methylnicotinamide] — 2-fold lower, 41 nM
- COc1ccccc1-c1cnncc1C(=O)Nc1nc2ccc(-c3ccc(C#N)nc3)nc2s1 [Example 144, N-(5-(6-cyanopyridin-3-yl)thiazolo[5,4-b]pyridin-2-yl)-5-(2-methoxyphenyl)pyridazine-4-carboxamide] — 7.5-fold lower, 11 nM
- COc1ccccc1-c1cnncc1C(=O)Nc1nc2ccc(OCC3CCCO3)nc2s1 (stereo not shown) [Example 118, 5-(2-methoxyphenyl)-N-(5-((tetrahydrofuran-2-yl)methoxy)thiazolo[5,4-b]pyridin-2-yl)pyridazine-4-carboxamide] — 4.9-fold lower, 17 nM
- COc1ccccc1-c1cnncc1C(=O)Nc1nc2ccc(-c3ccc(NS(C)(=O)=O)cc3)nc2s1 [Example 48, 5-(2-methoxyphenyl)-N-(5-(4-(methylsulfonamido)phenyl)thiazolo[5,4-b]pyridin-2-yl)pyridazine-4-carboxamide] — 8.7-fold lower, 9.5 nM
- COc1ccccc1-c1cnccc1C(=O)Nc1nc2ccc(-c3ccc(Cl)cc3)nc2s1 [Example 3, N-(5-(4-chlorophenyl)thiazolo[5,4-b]pyridin-2-yl)-3-(2-methoxyphenyl)isonicotinamide] — 1.7-fold higher, 145 nM
- Cc1cc(-c2ccc(=O)n(C)c2C)c(C(=O)Nc2nc3ccc(-c4ccc(C#N)cc4)nc3s2)cn1 [Example 120, N-(5-(4-cyanophenyl)thiazolo[5,4-b]pyridin-2-yl)-1,2,6′-trimethyl-6-oxo-1,6-dihydro-[3,4′-bipyridine]-3′-carboxamide] — 11-fold lower, 7.9 nM
- COc1ccccc1-c1cnncc1C(=O)Nc1nc2ccc(-c3ccc(Cl)c4nn(C)cc34)nc2s1 [Example 126, N-(5-(7-chloro-2-methyl-2H-indazol-4-yl)thiazolo[5,4-b]pyridin-2-yl)-5-(2-methoxyphenyl)pyridazine-4-carboxamide] — 6.9-fold lower, 12 nM
- COc1ccccc1-c1nc(C#N)ccc1C(=O)Nc1nc2ccc(-c3ccc(Cl)cc3)nc2s1 [Example 6, N-(5-(4-chlorophenyl)thiazolo[5,4-b]pyridin-2-yl)-6-cyano-2-(2-methoxyphenyl)nicotinamide] — 4.3-fold higher, 359 nM
- COc1ccc(C#N)cc1-c1cc(C)ncc1C(=O)Nc1nc2ccc(-c3ccc(CC#N)cn3)nc2s1 [Example 168, 4-(5-cyano-2-methoxyphenyl)-N-(5-(5-(cyanomethyl)pyridin-2-yl)thiazolo[5,4-b]pyridin-2-yl)-6-methylnicotinamide] — 19-fold lower, 4.4 nM
- COc1ccc(C#N)cc1-c1cc(C)ncc1C(=O)Nc1nc2ccc(-c3ccc(NC(C)=O)cc3)nc2s1 [Example 17, N-(5-(4-acetamidophenyl)thiazolo[5,4-b]pyridin-2-yl)-4-(5-cyano-2-methoxyphenyl)-6-methylnicotinamide] — 10-fold lower, 8.1 nM
- COc1ccc(C#N)cc1-c1cc(C)ncc1C(=O)Nc1nc2ccc(-c3ccc(CC#N)cc3C)nc2s1 [Example 172, 4-(5-cyano-2-methoxyphenyl)-N-(5-(4-(cyanomethyl)-2-methylphenyl)thiazolo[5,4-b]pyridin-2-yl)-6-methylnicotinamide] — 8.3-fold lower, 10 nM
- COc1ccc(C(N)=O)cc1-c1cc(C)ncc1C(=O)Nc1nc2ccc(-c3ccc(NC(C)=O)cc3)nc2s1 [Example 26, N-(5-(4-acetamidophenyl)thiazolo[5,4-b]pyridin-2-yl)-4-(5-carbamoyl-2-methoxyphenyl)-6-methylnicotinamide] — 2.3-fold higher, 189 nM
- COc1ccc(C2CC2)cc1-c1cc(C)ncc1C(=O)Nc1nc2ccc(-c3ccc(C#N)cc3)nc2s1 [Example 57, N-(5-(4-cyanophenyl)thiazolo[5,4-b]pyridin-2-yl)-4-(5-cyclopropyl-2-methoxyphenyl)-6-methylnicotinamide] — within 1.5-fold, 58 nM
- COc1ccc(C#N)cc1-c1cc(C)ncc1C(=O)Nc1nc2ccc(-c3ccc(Cl)cc3)nc2s1 [Example 8, N-(5-(4-chlorophenyl)thiazolo[5,4-b]pyridin-2-yl)-4-(5-cyano-2-methoxyphenyl)-6-methylnicotinamide] — 6.9-fold lower, 12 nM
- COc1ccc(C#N)cc1-c1cc(C)ncc1C(=O)Nc1nc2ccc(-c3ccc(N4CCOC4=O)cc3)nc2s1 [Example 43, 4-(5-cyano-2-methoxyphenyl)-6-methyl-N-(5-(4-(2-oxooxazolidin-3-yl)phenyl)thiazolo[5,4-b]pyridin-2-yl)nicotinamide] — within 1.5-fold, 75 nM
- COc1ccc(C#N)cc1-c1cc(CO)ncc1C(=O)Nc1nc2ccc(-c3ccc(C#N)cc3)nc2s1 [Example 109, 4-(5-cyano-2-methoxyphenyl)-N-(5-(4-cyanophenyl)thiazolo[5,4-b]pyridin-2-yl)-6-(hydroxymethyl)nicotinamide] — 18-fold lower, 4.7 nM
- COc1ccccc1-c1cc(C)ncc1C(=O)Nc1nc2ccc(-c3ccc(C#N)cc3)nc2s1 [Example 72, N-(5-(4-cyanophenyl)thiazolo[5,4-b]pyridin-2-yl)-4-(2-methoxyphenyl)-6-methylnicotinamide] — within 1.5-fold, 59 nM
- COc1ccccc1-c1cnncc1C(=O)Nc1nc2ccc(OC3CCCC3)nc2s1 [Example 114, N-(5-(cyclopentyloxy)thiazolo[5,4-b]pyridin-2-yl)-5-(2-methoxyphenyl)pyridazine-4-carboxamide] — within 1.5-fold, 99 nM
- COc1ccccc1-c1cnncc1C(=O)Nc1nc2ccc(Oc3ccc(Cl)cc3F)nc2s1 [Example 155, N-(5-(4-chloro-2-fluorophenoxy)thiazolo[5,4-b]pyridin-2-yl)-5-(2-methoxyphenyl)pyridazine-4-carboxamide] — within 1.5-fold, 73 nM
- COc1cccc(Cl)c1-c1cc(C)ncc1C(=O)Nc1nc2ccc(-c3ccc(C#N)cc3)nc2s1 [Example 146, 4-(2-chloro-6-methoxyphenyl)-N-(5-(4-cyanophenyl)thiazolo[5,4-b]pyridin-2-yl)-6-methylnicotinamide] — 3.8-fold lower, 22 nM
- N#Cc1ccc(C(=O)Nc2nc3ccc(-c4ccc(Cl)cc4)nc3s2)c(N2CCOCC2)n1 [Example 1, N-(5-(4-chlorophenyl)thiazolo[5,4-b]pyridin-2-yl)-6-cyano-2-morpholinonicotinamide] — 4.2-fold higher, 347 nM
- COc1ccccc1-c1cnncc1C(=O)Nc1nc2ccc(-c3ccc(C#N)cc3)nc2s1 [Example 83, N-(5-(4-cyanophenyl)thiazolo[5,4-b]pyridin-2-yl)-5-(2-methoxyphenyl)pyridazine-4-carboxamide] — 13-fold lower, 6.2 nM
- COc1ccc(C#N)cc1-c1cc(C)ncc1C(=O)Nc1nc2ccc(-c3ccc(CC#N)cc3)nc2s1 [Example 116, 4-(5-cyano-2-methoxyphenyl)-N-(5-(4-(cyanomethyl)phenyl)thiazolo[5,4-b]pyridin-2-yl)-6-methylnicotinamide] — 15-fold lower, 5.6 nM
- COc1cc(C#N)ccc1-c1ccc2nc(NC(=O)c3cnncc3-c3ccccc3OC)sc2n1 [Example 119, N-(5-(4-cyano-2-methoxyphenyl)thiazolo[5,4-b]pyridin-2-yl)-5-(2-methoxyphenyl)pyridazine-4-carboxamide] — 16-fold lower, 5.2 nM
- Cc1cc(-c2cc(C#N)ccc2C)c(C(=O)Nc2nc3ccc(-c4ccc(C#N)cc4)nc3s2)cn1 [Example 106, 4-(5-cyano-2-methylphenyl)-N-(5-(4-cyanophenyl)thiazolo[5,4-b]pyridin-2-yl)-6-methylnicotinamide] — 3.2-fold lower, 26 nM
- Cc1cc(-c2cc(C#N)ccc2C2CC2)c(C(=O)Nc2nc3ccc(-c4ccc(C#N)cc4)nc3s2)cn1 [Example 167, 4-(5-cyano-2-cyclopropylphenyl)-N-(5-(4-cyanophenyl)thiazolo[5,4-b]pyridin-2-yl)-6-methylnicotinamide] — 5.5-fold lower, 15 nM
- COc1ccccc1-c1cnncc1C(=O)Nc1nc2ccc(Cc3ccc(Cl)cc3)nc2s1 [Example 69, N-(5-(4-chlorobenzyl)thiazolo[5,4-b]pyridin-2-yl)-5-(2-methoxyphenyl)pyridazine-4-carboxamide] — 1.8-fold lower, 45 nM
- COc1ccc(C#N)cc1-c1cc(C)ncc1C(=O)Nc1nc2ccc(-c3ccc(N4CCCS4(=O)=O)cc3)nc2s1 [Example 135, 4-(5-cyano-2-methoxyphenyl)-N-(5-(4-(1,1-dioxidoisothiazolidin-2-yl)phenyl)thiazolo[5,4-b]pyridin-2-yl)-6-methylnicotinamide] — 3.6-fold lower, 23 nM
- COc1cccc(C#N)c1-c1cc(C)ncc1C(=O)Nc1nc2ccc(-c3ccc(C#N)cc3)nc2s1 [Example 153, 4-(2-cyano-6-methoxyphenyl)-N-(5-(4-cyanophenyl)thiazolo[5,4-b]pyridin-2-yl)-6-methylnicotinamide] — within 1.5-fold, 57 nM
- COc1cc(Cl)ccc1-c1ccc2nc(NC(=O)c3cnncc3-c3ccccc3OC)sc2n1 [Example 96, N-(5-(4-chloro-2-methoxyphenyl)thiazolo[5,4-b]pyridin-2-yl)-5-(2-methoxyphenyl)pyridazine-4-carboxamide] — within 1.5-fold, 60 nM
